Data reported in patent publication US20140072557A1, “MEDICINAL AGENT FOR SUPPRESSING MALIGNANT TUMOR METASTASIS” (priority 2011, published 2014).

Tests used:
A549 cells = assay: Invasion ability, Matrigel-coated Boyden chamber assay, A549 cells; assay type: cell-based; conditions: 1 μM hANP, TGF-β1 1 ng/mL, 40 hours
Procedure: Using a 6-well dish, the A549 cells were cultured at 1×10^5 cells/well, and the culture medium was replaced with DMEM culture medium free from FBS the next day. After 24 hours of culture, the cells were divided into 3 groups (the control group, the TGF-β1 group, and the TGF-β1+hANP group), and used in the following experiment.
To the culture medium for the TGF-β1+hANP group, the hANP solution was added so that the final concentration of hANP would be […] the control group and the TGF-β1 group, the same amount of physiological saline was added to the culture medium. After 2 hours from the addition, the Boyden chamber assay was performed as follows. Cell culture inserts (8.0 μm pore size, made by Becton, Dickinson and Company) coated with Matrigel were prepared beforehand by placing cell culture inserts on a 6-well dish, adding 300 μL each of a […] Matrigel solution (adjusted with PBS) thereonto, and air drying the inserts.
DMEM culture medium free from FBS for the control group, the same DMEM culture medium containing TGF-β1 (final concentration: 1 ng/mL) for the TGF-β1 group, and the same DMEM culture medium containing hANP (final concentration: 1 μM) and TGF-β1 (final concentration: 1 ng/mL) for the TGF-β1+hANP group were separately added to each well of a 6-well dish in an amount of 1.5 mL. […]

HUVEC cell layer = assay: Implantation of A549 cells into HUVEC cell layer; assay type: cell-based, human; conditions: VEGF+hANP (1 μM)
Procedure: Normal human umbilical cord vein endothelial cells (HUVEC) were purchased from Takara Bio, Inc. Medium preparation and subculture were performed according to the package insert. Nuclear staining was performed using TOPRO3 (purchased from Invitrogen), and immunostaining of VE-cadherin was performed using anti-VE-cadherin antibody (purchased from BD Biosciences). p After culturing the HUVEC to confluent and replacing the medium with a serum free medium, nuclear staining and immunostaining using anti-VE-cadherin antibody were performed in the presence or absence of VEGF and hANP to observe the expression of VE-cadherin.
In the presence of VEGF alone, the expression of VE-cadherin decreased, and intercellular gaps were observed. […] Further, in the presence of VEGF alone, when A549 cells were added onto the HUVEC cell layer, implantation of the A549 cells into the HUVEC cell layer was observed.

mouse melanoma B16-F10 = assay: Mouse tail vein injection metastasis test, mouse melanoma B16-F10; assay type: in vivo, mice; conditions: 0.5 μg/kg/min by subcutaneous osmotic pump, 2 weeks
Procedure: 6-week-old male […] mice were used (purchased from Japan SLC, Inc.). Mouse melanoma B16-F10 was purchased from ATCC, and cultured in DMEM (Life Technologies Corp.) containing 10% FCS under 5% CO2 at 37° C. The cells in a subconfluent state were treated with EDTA-trypsin, centrifuged, and then suspended in serum free DMEM so as to be 5×10^6 cells/mL. The melanoma cell suspension (100 μL/mouse, 5×10^5 cells) was injected to the tail vein of the mice. The osmotic pumps used were MODEL2002 (for 14-day administration) made by ALZET (Cupertino, Calif,.).
Mice into which an osmotic pump containing 0.9% physiological saline was subcutaneously implanted in the back were assigned to the control group. Similarly, an osmotic pump containing hANP prepared for administration at 0.5 μg/kg/min was subcutaneously implanted into each mouse in the ANP group, an osmotic pump containing mouse BNP prepared for administration at 0.5 μg/kg/min was subcutaneously implanted into each mouse in the BNP group, and an osmotic pump containing hCNP-22 prepared for administration at 2.5 μg/kg/min was subcutaneously implanted into each mouse in the CNP group. To the mice in the sildenafil group, sildenafil citrate at a dosage of 20 mg/kg was intraperitoneally administered once daily. […]

lung cancer patients = assay: Cancer recurrence after cancer resection surgery in lung cancer patients; assay type: in vivo, human; conditions: hANP 0.025 μg/kg/min continuous from surgery for 3 days, about 2 years follow-up, stages IA-III
Procedure: It is reported that lung cancer patients whose BNP level in the blood is 30 pg/mL or higher are at high risk of postsurgical complications after a cancer removal surgery. In this experiment, lung cancer patients were measured for the BNP level in the blood before cancer removal surgery. A part of the patients having the BNP level in the blood of 30 pg/mL or higher and patients judged to be at high risk of postsurgical complications by the doctor in charge were assigned to the hANP group (52 patients in total; cancer stage breakdown was IA: 26 patients […], IB: 16 patients […], II: 7 patients […], and III: 3 patients (6%)). The control group consisted of patients assigned regardless of the BNP level in the blood (287 patients in total, cancer stage breakdown was IA: 155 patients (54%), IB: 65 patients (23%), II: 35 patients (12%), and III: 32 patients (11%)). To the hANP group, hANP (trade name: HAMP for INJECTION 1000, non-bolus, made by DAIICHI SANKYO Co., Ltd.) was continuously administered at 0.025 μg/kg/min starting during the surgery of lung cancer and the administration continued for 3 days after surgery. Before the surgery and for 4 days after surgery, each patient was measured for the blood pressure (systolic and diastolic), the heart rate, and the urine volume. […]

SMILES: CC[C@H](C)[C@@H]1NC(=O)[C@H](CCCNC(=N)N)NC(=O)[C@H](CC(=O)O)NC(=O)[C@H](CCSC)NC(=O)[C@H](CCCNC(=N)N)NC(=O)CNC(=O)CNC(=O)[C@H](Cc2ccccc2)NC(=O)[C@@H](NC(=O)[C@H](CO)NC(=O)[C@H](CO)NC(=O)[C@H](CCCNC(=N)N)NC(=O)[C@H](CCCNC(=N)N)NC(=O)[C@H](CC(C)C)NC(=O)[C@@H](N)CO)CSSC[C@@H](C(=O)N[C@@H](CC(N)=O)C(=O)N[C@@H](CO)C(=O)N[C@@H](Cc2ccccc2)C(=O)N[C@@H](CCCNC(=N)N)C(=O)N[C@@H](Cc2ccc(O)cc2)C(=O)O)NC(=O)CNC(=O)[C@H](CC(C)C)NC(=O)CNC(=O)[C@H](CO)NC(=O)[C@H](CCC(N)=O)NC(=O)[C@H](C)NC(=O)CNC1=O [hANP, carperitide]
- cell invasion via the Matrigel layer (A549 cells): significantly suppressed
- implantation of A549 cells into the HUVEC cell layer (HUVEC cell layer): this phenomenon of implantation was suppressed
- lung metastasis of melanoma (number of nodules) (mouse melanoma B16-F10): significantly suppressed
- early recurrence of cancer (recurrence-free survival) (lung cancer patients): early recurrence was not observed
